The conditions of data set [1]: highest serum concentration reached after the maximum therapeutic dose in-vivo; cited from earlier work.
The next data set concerns Staphylococcus aureus. The data set can be described thus: Agar Dilution Method of Sensitivity testing, NE alone and NE + antibiotic. It counts as cell-based. As to conditions: resistant S. aureus cultures, 48 hours. On the procedure: (§1) Two kinds of investigations were carried-out using these bacterial isolates—using an Agar Dilution Method of Sensitivity testing.
i) To ascertain whether, NE can work as an antibacterial substance on its own. For this purpose, a stock-solution of NE was prepared and was sterilized as described in the preliminary experiments.
ii) This stock-solution was dispensed into the culture medium (Mueller Hinton Agar) so as to provide while; the medium was in liquid form. Four different concentrations of NE, viz.
iii) This medium was poured into petri dishes and allowed to solidify. Resistant cultures were inoculated on to these plates and after incubation for 48 hours, the growth patterns were assessed.
iv) The experiments were run in triplicate, for each concentration—as per standard practices of microbiological testing procedures.
(§2) i) The culture medium (Mueller Hinton Agar) was melted and distributed into a number of test tubes.
(§3) ii) The stock solution of NE was dispensed into these test tubes in four different concentrations viz.
(§4) iii) In the same medium, one of the antibiotics under investigation was also added so as to provide a variable concentration (at break-even point concentration) as described below:
(§5) iv) The culture medium containing NE extract+the antibiotic were poured into petri dishes and allowed to solidify.
(§6) v) The resistant bacterial strains were inoculated onto these plates, incubated for 48 hours and the growth patterns were studied on each plate.
These cultures were obtained various clinical samples, such as sputum, non-healing infected wounds, throat swabs etc.
A general note: In agar dilution, organisms are placed on agar that contains the substance at set levels.

The next data set concerns Pseudomonas aerugenosa. The data set can be described thus: Agar Dilution Method of Sensitivity testing, NE + antibiotic. The data set is classed as cell-based. As to conditions: for Growth Patterns after addition of NE: no. of cultures +++ (growth) / Growth Patterns after addition of NE: no. of cultures −−− (inhibition of growth): 16 resistant Pseudomonas strains, 48 hours. On the procedure:
as §1, §2, §3, §4, §5, §6

The test system of data set [2] is Salmonella senftenberg. The data set can be described thus: Broth tube test of NE with antibiotic at break point, percentage of killing. It counts as cell-based. As to conditions: Example 13 strain; antibiotic in combination with NE, uniform in all four concentrations. On the procedure:
(§7) Since all the study isolates are resistant to the concerned antibiotics, each antibiotic is taken at its breakpoint concentration, (the highest serum concentration of that particular antibiotic reached after the maximum therapeutic dose in-vivo). The break points for various antibiotics are as follows:
(§8) Preparation of Neem Extract: Stock solution of neem extract (1 mg/ml) was prepared, filtered and autoclaved. It was used in 4 concentrations—1000 μg/ml; 500 μg/ml; 250 μg/ml; 125 μg/ml.
(§9) A set of four tubes with variable concentrations of the extract is prepared and to each of these tubes, the break point concentration of antibiotics is added. Now, these sets are inoculated with the study isolate in the same manner as per the broth dilution procedure. A set of six controls is inoculated with each isolate—in parallel with the main experiment.
(§10) 2. Only antibiotic solution
(§11) 3. Medium and antibiotic solution with inoculum
(§12) 5. Only Neem extract at 250 μg/ml
(§13) 6. Medium with Neem Extract and inoculum
(§14) Reading the test All the tests and control tubes are observed for visible turbidity of growth first. Since all the study isolates were earlier confirmed to be resistant to the antibiotics, the bacterial growth is expected at the breakpoint concentration of the antibiotic. Any reduction in the turbidity as compared to the control tube no. 3 is noted as a possible additive or synergistic effect of the neem extract with the antibiotic. In absence of such effect, the tubes may show growth matching with the control no. 4.
(§15) In case of a positive result, further sub-culturing was taken up, on solid media for colony counts with a calibrated loop. The colony counts could be noted by a semi quantitative method as 101 to 10^5 CFU/ml (Colony forming units). This is finally expressed as the percentage of killing as compared to the colony count obtained with control no. 4. Usually control tubes no. 3, 4 and 6 had similar colony counts.

Data set [3] relates to Klebsiella pneumoniae. Described as above. The data set is classed as cell-based. On the procedure: as §7, §8, §9, §10, §11, §12, §13, §14, §15
For data set [4], the system named is Salmonella senftenberg. The data set can be described thus: Broth Macro Dilution Test, MIC and MBC. It counts as cell-based. As to conditions: Example 13: strain from burn wound swab culture; antibiotic alone. The source says: (§16) This was done by estimation of the Minimum Inhibitory Concentration (MIC) and Minimum Bactericidal Concentration (MBC) on the selected isolates by a Broth Macro Dilution Test.
(§17) While conducting these tests, the guidelines given by the National committee of Clinical Laboratory Standards 1995 protocols were employed. Cation Supplemented Mueller Hinton Broth was used as medium for all organisms excepting for β haemolytic streptococci for which, Todd Hewit's Broth was used as medium.
(§18) The following concentrations of antibiotics were tested to determine MIC and MBC.
(§19) Co-trimoxazole (Sulpharnethoxazole/Trimethoprim/μg/μg per ml)
(§20) A minimum inhibitory concentration is the lowest level of antibiotic needed to cause an inhibition to bacterial growth in culture medium whereas, the minimum bactericidal concentration is the lowest concentration of antibiotic to achieve a 100% killing of bacteria. Thus, these two values are the practical indices of intensity of bacterial resistance to a given antibiotic. On the other hand, a break-even point of any antibiotic indicates the attainable blood levels after an administration of full dose, in human/animal body. Thus, this point indicates the practical dosage of administering any given antibiotic effectively and beyond this point, even if an antibiotic is found to act effectively in experimental situation—such dose cannot be administered in a clinical situation.

The test system of data set [5] is Klebsiella pneumoniae. The data set can be described thus: Broth Macro Dilution Test, MIC and MBC. It counts as cell-based. As to conditions: antibiotic alone.
From the text: as §16, §17, §18, §19, §20

Where [6] appears, read: antibiotic at break-even point + NE 125 μg/mL.
The mark [7] stands for this setting: antibiotic at break-even point + NE 250 μg/mL.
[8] abbreviates: antibiotic at break-even point + NE 500 μg/mL.
[9] abbreviates: antibiotic at break-even point + NE 1000 μg/mL.
Setting [10] is: Example 3: strain from non-healing burn wound.
Setting [11] is: Example 4: strain from wound swab culture.

As to `CC1(C)S[C@@H]2[C@H](NC(=O)[C@H](N)c3ccc(O)cc3)C(=O)N2[C@H]1C(=O)O` [Amoxacillin], the break point in data set [1] was 16 µg/mL.
As to `CC1=C(C(=O)O)N2C(=O)[C@@H](NC(=O)[C@H](N)c3ccccc3)[C@H]2SC1` [Cephalexin], the break point in data set [1] is 18 µg/mL. Besides, the “Growth Patterns after addition of NE: no. of cultures +++ (growth)” value (shortened to “Growth Patterns … no. of cultures +++ (growth)”) with Staphylococcus aureus (setting [6]), in the data set with Staphylococcus aureus (setting [7]), in the data set with Staphylococcus aureus (setting [8]) and in the data set on Staphylococcus aureus (setting [9]) was 81 in each case. The “Growth Patterns after addition of NE: no. of cultures −−− (inhibition of growth)” value in the data set with Staphylococcus aureus (setting [6]), in the data set with Staphylococcus aureus (setting [7]), in the data set with Staphylococcus aureus (setting [8]) and in the data set with Staphylococcus aureus (setting [9]) was 21 in each case.
Turning to `CCN1CCN(C(=O)N[C@@H](C(=O)N[C@@H]2C(=O)N3[C@@H]2SC(C)(C)[C@@H]3C(=O)O)c2ccccc2)C(=O)C1=O` [Piperacillin], the “Growth Patterns … no. of cultures +++ (growth)” value with Pseudomonas aerugenosa (setting [6]), in the data set with Pseudomonas aerugenosa (setting [7]), with Pseudomonas aerugenosa (setting [8]) and in the data set with Pseudomonas aerugenosa (setting [9]) was 3 each time. The “Growth Patterns after addition of NE: no. of cultures −−− (inhibition of growth)” value in the data set on Pseudomonas aerugenosa (setting [6]), in the data set on Pseudomonas aerugenosa (setting [7]), in the data set on Pseudomonas aerugenosa (setting [8]) and with Pseudomonas aerugenosa (setting [9]) was 13 throughout. In addition, the “isolates sensitized to the antibiotic by NE” value in the data set with Pseudomonas aerugenosa (of 16 resistant strains, NE + antibiotic) is 13.
Co-trimoxazole: the killing with Salmonella senftenberg [2] is 60%; in the data set on Klebsiella pneumoniae [3] (Example 3 strain, antibiotic at break point in combination with NE, uniform at 1000, 500, 250, 125 μg/ml), 50%; in the data set on Klebsiella pneumoniae [3] (Example 4 strain, antibiotic at break-even concentration with NE, uniform at all four NE concentrations) it was 90%. Further, the MBC against Salmonella senftenberg [4] is listed as 16/304; in the data set with Klebsiella pneumoniae [5] (setting [10]) it was > 16/304; against Klebsiella pneumoniae [5] (setting [11]), 16/304. For the same molecule, the MIC in the data set on Salmonella senftenberg [4], with Klebsiella pneumoniae [5] (setting [10]) and with Klebsiella pneumoniae [5] (setting [11]) was 8/152 each time.
For Gentamicin, the “Growth Patterns … no. of cultures +++ (growth)” value in the data set on Staphylococcus aureus (setting [6]) is recorded as 89; in the data set on Staphylococcus aureus (setting [7]), 88; in the data set with Staphylococcus aureus (setting [8]) it was 88; in the data set on Staphylococcus aureus (setting [9]), 88. The “Growth Patterns after addition of NE: no. of cultures −−− (inhibition of growth)” value with Staphylococcus aureus (setting [6]) amounted to 13; in the data set with Staphylococcus aureus (setting [7]) it was 14; with Staphylococcus aureus (setting [8]), 14; in the data set with Staphylococcus aureus (setting [9]), 14.

The record behind these values is US6599541B1, “Composition for treatment of drug resistant bacterial infections and a method of treating drug resistant bacterial infections” (priority 1999, dated 2003).
